Laboratory results: patent US6417167B1, “Lyophilized compositions containing shingoglycolipid and process for preparing them” (Kirin Beer Kabushiki Kaisha, priority 1997, dated 2002)
Values after ≈ are worked out from the molar mass of the structure shown. Where two headings read alike, the source gives them in different places.

What was measured:
Format in all cases: physicochemical
[1] = Excipient appropriate to lyophilization 1: re-solubility immediately after lyophilization; settings: KRN7000 200 μg/ml, Polysorbate 20 0.5%
Method: A variety of monosaccharides and disaccharides were used for examination of excipients of the lyophilized preparation. In this context, the active component (KRN7000) was set at the concentration of 200 μg/ml, and Polysorbate 20 which is used only in a limited amount from the viewpoint of safety was set at the concentration of 0.5% in the following examination.
(§1) First, Polysorbate 20 was dissolved in distilled water in a concentration of 0.5%, and the saccharides were dissolved in such concentrations as listed in Table 6. Next, 20 mg of the active component (KRN7000) was weighed and stirred in 100 ml of the solvents in a heated bath to 80° C. for 20 minutes in order to form a solution. After cooling with running water, the mixture was filtered through a 0.22 μm filter, and transparent colorless glass vials having a volume of 5 ml were charged with a 1 ml portion of each of a variety of solutions thus obtained and subjected to lyophilization. Lyophilization was carried out under the condition of preliminary freezing at −40° C. for 2 hours and drying at −20° C. for 24 hours, 10° C. for 12 hours, and finally at 25° C. for 5 hours to give the lyophilized product. The degree of vacuum was set at 0.1 Torr or less during drying step.
After the lyophilization step, the lyophilized composition was reconstituted in 1 ml of distilled water for injection, left standing for 30 minutes, and solubility was judged when the foams generated on reconstitution disappeared.
(§2) The solubility was judged by cleaning the outside of the vial and placing it beneath the white light source in a darkroom for observation with naked eye at the position of a luminous intensity of about 5,000 lux. When the sample was clear with no precipitates, it was judged that the active component was dissolved.

[2] = Lyophilized preparations with Polysorbate 20 alone: re-solubility immediately after lyophilization; settings: KRN7000 200 μg/ml, reconstituted in 1 ml distilled water for injection
Method: as §1, with “Next,” for “First, Polysorbate 20 was dissolved in distilled water in a concentration of 0.5%, and the saccharides were dissolved in such concentrations as listed in Table 6. Next,”, “Polysorbate solutions having a variety of concentrations” for “solvents”, “solutions” for “solutions thus obtained”, “lyophilizaiton.” for “lyophilization.”
After the lyophilization step, the lyophilized composition was reconstituted in 1 ml of distilled water for injection, left standing for 30 minutes, and solubility was judged when the foams generated on reconstituiton disappeared.
as §2

[3] = Selection of a solvent for the active component: solubility judged by naked eye; settings: thermodynamic from solid, read-out: Judgment of solubility (by naked eye)
Method: First, 1 mg of the active component (KRN7000) was weighed and stirred in 100 ml of a variety of solvents (Table 3) in a heated bath to 80° C. for 20 minutes in order to form a solution having a concentration of 10 μg/ml. With respect to the solvents which were judged to have successfully dissolved 10 μg/ml of the active component, dissolution was further tried in the same manner as above in order to form a solution having a concentration of 100 μg/ml. With respect to the solvents which were judged to have successfully dissolved 100 μg/ml of the active component, dissolution was further tried in the same manner as above in order to form a solution having a concentration of 200 μg/ml. After cooling with running water, the solubility of the component was judged.
The solubility of the component was judged by the test described below. First, transparent colorless glass vials having a volume of 5 ml were charged with about 1.5 ml portion of each sample and sealed up. The vial was cleaned outside and placed beneath the white light source in a darkroom for observation with naked eye at the position of a luminous intensity of about 5,000 lux. When the sample was clear with no precipitates, it was judged that the active component was dissolved.

CCCCCCCCCCCCCCCCCCCCCCCCCC(=O)N[C@@H](CO[C@H]1O[C@H](CO)[C@H](O)[C@H](O)[C@H]1O)[C@H](O)[C@H](O)CCCCCCCCCCCCCC [KRN7000, (2S,3S,4R)-1-(α-D-galactopyranosyloxy)-2-hexacosanoylamino-3,4-octadecanediol]
Re-solubility immediately after lyophilization ([1]; excipient Fructose 5%): + (not dissolved (or deposited)) | Re-solubility immediately after lyophilization ([1]; excipient Fructose 10%): + (not dissolved (or deposited)) | Re-solubility immediately after lyophilization ([1]; excipient Glucose 5%): − (dissolved) | Re-solubility immediately after lyophilization ([1]; excipient Glucose 10%): + (not dissolved (or deposited)) | Re-solubility immediately after lyophilization ([1]; excipient Lactose 5%): + (not dissolved (or deposited)) | Re-solubility immediately after lyophilization ([1]; excipient Lactose 10%): + (not dissolved (or deposited)) | Re-solubility immediately after lyophilization ([1]; excipient Maltose 1.5%): + (not dissolved (or deposited)) | Re-solubility immediately after lyophilization ([1]; excipient Maltose 3%): + (not dissolved (or deposited)) | Re-solubility immediately after lyophilization ([1]; excipient Mannitol 5%): + (not dissolved (or deposited)) | Re-solubility immediately after lyophilization ([1]; excipient Mannitol 10%): − (dissolved) | Re-solubility immediately after lyophilization ([1]; excipient Sorbitol 5%): + (not dissolved (or deposited)) | Re-solubility immediately after lyophilization ([1]; excipient Sorbitol 10%): + (not dissolved (or deposited)) | Re-solubility immediately after lyophilization ([1]; excipient Sucrose 4.8%): − (dissolved) | Re-solubility immediately after lyophilization ([1]; excipient Sucrose 9.6%): − (dissolved) | Re-solubility immediately after lyophilization ([1]; excipient Xylitol 4.3%): + (not dissolved (or deposited)) | Re-solubility immediately after lyophilization ([1]; excipient Xylitol 8.6%): + (not dissolved (or deposited)) | Re-solubility immediately after lyophilization (by naked eye) ([2]; Polysorbate 20 0.5%): + (not dissolved (or deposited)) | Re-solubility immediately after lyophilization (by naked eye) ([2]; Polysorbate 20 1.0%): + (not dissolved (or deposited)) | Re-solubility immediately after lyophilization (by naked eye) ([2]; Polysorbate 20 2.0%): + (not dissolved (or deposited)) | solubility at 20 min ([3]; 0.5% Cremophor, 80 °C, aqueous with cosolvent or surfactant or cyclodextrin, solvent 0.5% Cremophor, KRN7000 10 μg/ml): < 10 µg/mL | solubility at 20 min ([3]; 0.5% HCO 50, 80 °C, aqueous with cosolvent or surfactant or cyclodextrin, solvent 0.5% HCO 50, KRN7000 10 μg/ml): < 10 µg/mL | solubility at 20 min ([3]; 0.5% HCO 60, 80 °C, aqueous with cosolvent or surfactant or cyclodextrin, solvent 0.5% HCO 60, KRN7000 10 μg/ml): < 10 µg/mL | solubility at 20 min ([3]; 0.5% Polyoxamer 188, 80 °C, aqueous with cosolvent or surfactant or cyclodextrin, solvent 0.5% Polyoxamer 188, KRN7000 10 μg/ml): < 10 µg/mL | solubility at 20 min ([3]; 0.5% Polysorbate 20, 80 °C, aqueous with cosolvent or surfactant or cyclodextrin, solvent 0.5% Polysorbate 20, KRN7000 10 μg/ml): > 10 µg/mL | solubility at 20 min ([3]; 0.5% Polysorbate 20, 80 °C, aqueous with cosolvent or surfactant or cyclodextrin, solvent 0.5% Polysorbate 20, KRN7000 100 μg/ml): > 100 µg/mL | solubility at 20 min ([3]; 0.5% Polysorbate 20, 80 °C, aqueous with cosolvent or surfactant or cyclodextrin, solvent 0.5% Polysorbate 20, KRN7000 200 μg/ml): > 200 µg/mL | solubility at 20 min ([3]; 0.5% Polysorbate 80, 80 °C, aqueous with cosolvent or surfactant or cyclodextrin, solvent 0.5% Polysorbate 80, KRN7000 10 μg/ml): > 10 µg/mL | solubility at 20 min ([3]; 0.5% Polysorbate 80, 80 °C, aqueous with cosolvent or surfactant or cyclodextrin, solvent 0.5% Polysorbate 80, KRN7000 100 μg/ml): 10 to 100 µg/mL (≈ 11.7 to 117 µM) | solubility at 20 min ([3]; 1N HCl, 80 °C, simulated gastric fluid, solvent 1N HCl, KRN7000 10 μg/ml): < 10 µg/mL | solubility at 20 min ([3]; 1N NaOH, 80 °C, aqueous buffer, solvent 1N NaOH, KRN7000 10 μg/ml): < 10 µg/mL | solubility at 20 min ([3]; Distilled water, 80 °C, water, solvent Distilled water, KRN7000 10 μg/ml): < 10 µg/mL | solubility at 20 min ([3]; Ethanol, 80 °C, organic solvent or mixture, solvent Ethanol, KRN7000 10 μg/ml): > 10 µg/mL | solubility at 20 min ([3]; Ethanol, 80 °C, organic solvent or mixture, solvent Ethanol, KRN7000 100 μg/ml): > 100 µg/mL | solubility at 20 min ([3]; Ethanol, 80 °C, organic solvent or mixture, solvent Ethanol, KRN7000 200 μg/ml): > 200 µg/mL | solubility at 20 min ([3]; Glycerol, 80 °C, organic solvent or mixture, solvent Glycerol, KRN7000 10 μg/ml): > 10 µg/mL | solubility at 20 min ([3]; Glycerol, 80 °C, organic solvent or mixture, solvent Glycerol, KRN7000 100 μg/ml): 10 to 100 µg/mL (≈ 11.7 to 117 µM) | solubility at 20 min ([3]; Macrogol 400, 80 °C, organic solvent or mixture, solvent Macrogol 400, KRN7000 10 μg/ml): > 10 µg/mL | solubility at 20 min ([3]; Macrogol 400, 80 °C, organic solvent or mixture, solvent Macrogol 400, KRN7000 100 μg/ml): 10 to 100 µg/mL (≈ 11.7 to 117 µM) | solubility at 20 min ([3]; Propylene glycol, 80 °C, organic solvent or mixture, solvent Propylene glycol, KRN7000 10 μg/ml): > 10 µg/mL | solubility at 20 min ([3]; Propylene glycol, 80 °C, organic solvent or mixture, solvent Propylene glycol, KRN7000 100 μg/ml): 10 to 100 µg/mL (≈ 11.7 to 117 µM)
